The conditions of the series: 100% relative humidity over 48 hours.

Each structure is given as a SMILES string.

As for `CCOC(=O)N1c2ccc(C(F)(F)F)cc2[C@@H](N(Cc2cc(C(F)(F)F)cc(C(F)(F)F)c2)C(=O)OC)C[C@H]1CC` [Example 9, Anhydrous (−)-(2R,4S)-4-[(3,5-Bis-trifluoromethyl-benzyl)-methoxycarbonyl-amino]-2-ethyl-6-trifluoromethyl-3,4-dihydro-2H-quinoline-1-carboxylic Acid Ethyl Ester], the Hygroscopicity result is “Non-hygroscopic”.

The record behind these values is patent US20020035125A1, “Therapeutic combination” (priority 2000, published 2002).
